In patent publication US20210161997A1, “TREATING DISEASES VIA TARGETED MODULATION OF GENE SIGNALING NETWORKS” (Camp4 Therapeutics Corporation, priority 2018, published 2021):
Where a name gives a salt, the structure may show the parent alone. Read-outs that look alike come from different tables or passages of the source.

What was measured:
Assay type in all cases: cell-based
CPOX = experiment: RNA-seq of CPOX expression in compound-treated primary human hepatocytes
Experimental: (§1) Human hepatocytes were obtained from two donors from Massachusetts General Hospital, namely MGH54 and MGH63, and one donor from Lonza, namely HUM4111B. Cryopreserved hepatocytes were cultured in plating media for 16 hours, transferred to maintenance media for 4 hours. Cultured on serum-free media for 2 hours, then a compound was added. The hepatocytes were maintained on the serum-free media for 16 hours prior to gene expression analysis. Primary human hepatocytes were stored in the vapor phase of a liquid nitrogen freezer (about −130° C.).
(§2) Human hepatocytes cultured as described above were plated in 24-well format, adding 375,000 cells per well in a volume of 500 ul plating medium. Four hours before treatment, cells were washed with PBS and the medium was changed to either: fresh maintenance medium (complete) or modified maintenance medium.
(§3) Compound stocks were prepared at 1000× final concentration and added in a 2-step dilution to the medium to reduce risk of a compound precipitating out of solution when added to the cells, and to ensure reasonable pipetting volumes. One at a time, each compound was first diluted 10-fold in warm (about 37° C.) modified maintenance medium (initial dilution=ID), mixed by vortexing, and the ID was diluted 100-fold into the cell culture (e.g. 5.1 ul into 1 well of a 24-well plate containing 0.5 mL medium). The plate was mixed by carefully swirling and after all wells were treated and returned to the incubator overnight. If desired, separate plates/wells were treated with vehicle-only controls and/or positive controls. If using multi-well plates, controls were included on each plate. After about 18 hours, cells were harvested for further analysis, e.g., ChIP-seq, RNA-seq, ATAC-seq, etc.
(§4) This protocol is a modified version of the following protocols: MagMAX mirVana Total RNA Isolation Kit User Guide (Applied Biosystems #MAN0011131 Rev B.0), NEBNext Poly(A) mRNA Magnetic Isolation Module (E7490), and NEBNext Ultra Directional RNA Library Prep Kit for Illumina (E7420) (New England Biosystems #E74901).
(§5) The MagMAX mirVana kit instructions (the section titled “Isolate RNA from cells” on pages 14-17) were used for isolation of total RNA from cells in culture. Two hundred μl of Lysis Binding Mix was used per well of the multiwell plate containing adherent cells (usually a 24-well plate).
(§6) For mRNA isolation and library prep, the NEBNext Poly(A) mRNA Magnetic Isolation Module and Directional Prep kit was used. RNA isolated from cells above was quantified, and prepared in […] of each sample in 50 μl of nuclease-free water. This protocol may be run in microfuge tubes or in a 96-well plate.
(§7) Standard QC were applied (read integrity, mapping statistics, library complexity, fragment bias) to remove unsatisfactory samples. […] Log 2 fold change and significance values were computed using PME count data (with replicates explicitly modeled versus pan-experiment controls), median ratio normalized, using maximum likelihood estimation rather than maximum a posteriori, and disabling the use of Cook's distance cutoff when determining acceptable adjusted p-values. […] RNA-seq signals were also normalized by read depth and visualized using the UCSC browser.
(§8) To identify small molecules that modulate target gene expression, primary human hepatocytes were prepared as a monoculture, and at least one small molecule compound was applied to the cells.
(§9) RNA-seq was performed to determine the effects of the compounds on the expression of the target genes in hepatocytes. Fold change was calculated by dividing the level of expression in the cell system that had been perturbed by the level of expression in an unperturbed system. Changes in expression having a p-value ≤0.05 were considered significant.
Significance was defined as an FPKM ≥0.5 a log 2(fold change) ≥0.3, and a q-value of ≤0.05.

APOL1 = experiment: RNA-seq of APOL1 expression in compound-treated primary human hepatocytes; details: for mrna remaining at 10 µM: Homo sapiens, Hepatocyte, 16 h, read-out: APOL mRNA linear fold change
Experimental: as §1, §2, §3, §4, §5, §6
(§10) All pass filter reads from each sample were mapped against the human genome (assembly GRCh38/GCA_000001405.15 “no alt” analysis set merged with hs38d1/GCA_000786075.2) using two pass mapping via STAR version 2.5.3a (alignment parameters alignIntronMin=20; alignIntronMax=1000000; outFilterMismatchNmax=999; outFilterMismatchNoverLmax=0.05; outFilterType=BySJout; outFilterMultimapNmax=20; alignSJoverhangMin=8; alignSJDBoverhangMin=1; alignMatesGapMax=1000000) (Dobin et al., Bioinformatics (2012) 29(1):15-21). Genomic alignments were converted to transcriptome alignments based on reference transcript annotations from the Human GENCODE Gene Set release 24 (Harrow et al., Genome Res. (2012) 22(9): 1760-1774). Using unique and multimapped transcriptomic alignments, gene-level abundance estimates were computed using RSEM version 1.3.0 (Li and Dewey, BMC Bioinformatics (2011) 12:323) in a strand-aware manner, and including confidence interval sampling calculations, to arrive at posterior mean estimates (PME) of abundances (counts and normalized FPKM—fragments per kilobase of exon per million mapped fragments) from the underlying Bayesian model. Standard QC were applied (read integrity, mapping statistics, library complexity, fragment bias) to remove unsatisfactory samples.

FN1 = experiment: RNA-seq of FN1 expression in compound-treated primary human hepatocytes; details: perturbed vs unperturbed, significance FPKM ≥1, log 2(fold change) ≥0.5, q-value ≤0.05
Experimental: as §1, §2, §3, §4, §5, §6, §10

LECT2 = experiment: RNA-seq of LECT2 expression in compound-treated primary human hepatocytes
Experimental: as §1, §2, §3, §4, §5, §6, §7, §8, §9
Significance was defined as an FPKM ≥1, a log 2(fold change) ≥0.5, and a q-value of ≤0.05 for all targets except for CPOX.

ANGPTL3 = experiment: RNA-seq of ANGPTL3 expression in compound-treated primary human hepatocytes; details: additional compounds (Table 13), linear fold change
Outline: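 Cryopreserved primary human hepatocytes from three donors, plated at 375,000 cells/well, switched to complete or modified maintenance medium, then dosed with compound (stocks at 1000× final) for about 18 h. Poly(A) mRNA was sequenced directionally, mapped to GRCh38 with STAR, and gene-level abundance (counts, FPKM) estimated with RSEM against GENCODE 24.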

SLC37A4 = experiment: RNA-seq of SLC37A4 expression in compound-treated primary human hepatocytes
Experimental: as §1, §2, §3, §4, §5, §6, §10

UGT1A1 = experiment: RNA-seq of UGT1A1 expression in compound-treated primary human hepatocytes
Outline: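 Cryopreserved primary human hepatocytes from three donors were plated in 24-well format, then treated with compound diluted from 1000× stocks in serum-free maintenance medium for about 16–18 h. Poly(A) RNA-seq log2 fold change was computed against vehicle/pan-experiment controls. Significance required FPKM ≥1, log2FC ≥0.5 and q ≤0.05.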

[1] = RNA-seq, primary human hepatocytes, significance FPKM ≥0.5, log 2(fold change) ≥0.3, q-value ≤0.05

In the case of `COc1cc(Nc2c(C#N)cnc3cc(OCCCN4CCN(C)CC4)c(OC)cc23)c(Cl)cc1Cl` [Bosutinib], the “CPOX Fold change (Log2)” value (CPOX) is reported as 0.34 Log2.
`CC1OC2(CS1)CN1CCC2CC1` (stereo not drawn) [CPD341_Cevimeline, Cevimeline] was tested, and the mrna remaining at 10 µM (APOL1; RNAseq, 10 uM dose (Table 20)) was 65.5%.
For `CC[C@@H](CO)NC(=O)[C@@H]1C=C2c3cccc4[nH]cc(c34)C[C@H]2N(C)C1` [CPD388_Methylergonovine, Methylergonovine], the mrna remaining at 10 µM (APOL1) was 64.2%.
Work on `Clc1ccc(C(c2ccccc2Cl)C(Cl)Cl)cc1` (stereo not drawn) [CPD446_Mitotane, Mitotane] yielded a mrna remaining at 10 µM (APOL1; RNAseq, 10 uM dose (Table 20)) of 65.5%.
With `C[C@]12C=CC(=O)C=C1CC[C@@H]1[C@@H]2[C@@H](O)C[C@@]2(C)[C@H]1CC[C@]2(O)C(=O)CO` [CPD447_Prednisolone, Prednisolone] the mrna remaining at 10 µM (APOL1; RNAseq, 10 uM dose (Table 20)) was 65.5%.
Compound `CC(C)C[C@H](NC(=O)[C@H](Cc1ccccc1)NC(=O)c1cnccn1)B(O)O` [CPD569_Bortezomib (PS-341), Bortezomib] has a mrna remaining at 10 µM (APOL1; RNAseq, 10 uM dose (Table 20)) of 63.7%.
For `C=C1/C(=C\C=C2/CCC[C@]3(C)[C@@H]([C@H](C)CCCC(C)(C)O)CC[C@@H]23)C[C@@H](O)C[C@@H]1O` [Calcitriol], the “FN1 Fold Change (Log2)” value (FN1) was −0.79 Log2, the “LECT2 Fold Change (Log2)” value (LECT2) was −1.82 Log2 and the “ANGPTL3-LINEAR FOLD CHANGE” value (ANGPTL3) was 0.483.
For `[Cl][Co][Cl]` [Cobalt chloride], the “CPOX Fold change (Log2)” value (CPOX) was 0.49 Log2 and the “SLC37A4 Fold Change (Log2)” value (SLC37A4) was 1.09 Log2.
With `C[C@]12C[C@H](O)[C@H]3[C@@H](CCC4=CC(=O)CC[C@@]43C)[C@@H]1CC[C@@H]2C(=O)CO` [Corticosterone] the “CPOX Fold change (Log2)” value (CPOX; [1]) was 0.36 Log2, the “SLC37A4 Fold Change (Log2)” value (SLC37A4) was 0.73 Log2 and the “UGT1A1 Fold Change (Log2)” value (UGT1A1) was 0.86 Log2.
With `CC(=O)N(O)CCCCCNC(=O)CCC(=O)N(O)CCCCCNC(=O)CCC(=O)N(O)CCCCCN` [Deferoxamine mesylate] the “CPOX Fold change (Log2)” value (CPOX) was 0.37 Log2.
In the case of `C[C@@H]1C[C@H]2[C@@H]3CCC4=CC(=O)C=C[C@]4(C)[C@@]3(F)[C@@H](O)C[C@]2(C)[C@@]1(O)C(=O)CO` [Dexamethasone], the “SLC37A4 Fold Change (Log2)” value (SLC37A4) is reported as 0.66 Log2.
`O=Cc1c2[nH]c3ccccc3c2cc2[nH]c3ccccc3c12` [FICZ] was tested, and the “CPOX Fold change (Log2)” value (CPOX) was 0.44 Log2, the “UGT1A1 Fold Change (Log2)” value (UGT1A1) was 2.62 Log2 and the “ANGPTL3-LINEAR FOLD CHANGE” value (ANGPTL3) was 0.3231.
With `O=C1NC(=O)/C(=C/c2ccc3nccc(-c4ccncc4)c3c2)S1` [GSK1059615] the “APOL mRNA linear fold change” value (APOL1; RNAseq, 10 uM dose (Table 20)) was 0.5105 and the “ANGPTL3-LINEAR FOLD CHANGE” value (ANGPTL3) was 0.1856.
`C[N+]1(C)CCC(OC(=O)C(O)(c2ccccc2)C2CCCC2)C1` (stereo not drawn) [Glycopyrrolate] was tested, and the “CPOX Fold change (Log2)” value (CPOX; [1]) was 0.31 Log2.
`O=C(O)CC[C@H]1CC[C@@](c2cc(F)ccc2F)(S(=O)(=O)c2ccc(Cl)cc2)CC1` [MK-0752] was tested, and the “CPOX Fold change (Log2)” value (CPOX) was 0.34 Log2.
For `CCc1nn(CCCN2CCN(c3cccc(Cl)c3)CC2)c(=O)n1CCOc1ccccc1` [Nefazodone], the “CPOX Fold change (Log2)” value (CPOX) was 0.35 Log2.
`NCC(=O)Nc1ccc(-n2nc(C(F)(F)F)cc2-c2ccc3c(ccc4ccccc43)c2)cc1` [OSU-03012] was tested, and the “FN1 Fold Change (Log2)” value (FN1) was −1.03 Log2, the “LECT2 Fold Change (Log2)” value (LECT2) was −0.77 Log2 and the “ANGPTL3-LINEAR FOLD CHANGE” value (ANGPTL3) was 0.4965.
`COc1cc(Nc2ncc(F)c(Nc3ccc4c(n3)N(COP(=O)(O)O)C(=O)C(C)(C)O4)n2)cc(OC)c1OC` [R788 (fostamatinib disodium hexahydrate), fostamatinib disodium hexahydrate] was tested, and the “SLC37A4 Fold Change (Log2)” value (SLC37A4) was 0.74 Log2 and the “UGT1A1 Fold Change (Log2)” value (UGT1A1) was 0.85 Log2.
In the case of `Cc1c(C(=O)NN2CCCCC2)nn(-c2ccc(Cl)cc2Cl)c1-c1ccc(Cl)cc1` [Rimonabant], the “FN1 Fold Change (Log2)” value (FN1) is reported as −0.76 Log2, the “LECT2 Fold Change (Log2)” value (LECT2) is reported as −0.81 Log2 and the “ANGPTL3-LINEAR FOLD CHANGE” value (ANGPTL3) is reported as 0.4538.
`O=C(NCCCn1ccnc1)c1cc(-c2ccco2)on1` [SKL2001] was tested, and the “FN1 Fold Change (Log2)” value (FN1) was −0.81 Log2, the “CPOX Fold change (Log2)” value (CPOX) was 0.45 Log2 and the “ANGPTL3-LINEAR FOLD CHANGE” value (ANGPTL3) was 0.4323.
`CN[C@H]1CC[C@@H](c2ccc(Cl)c(Cl)c2)c2ccccc21` [Sertraline HCl] was tested, and the mrna remaining at 10 µM (APOL1; RNAseq, 10 uM dose (Table 20)) was 64.6% and the “ANGPTL3-LINEAR FOLD CHANGE” value (ANGPTL3) was 0.3816.
For `CCN(CC)CCNC(=O)c1c(C)[nH]c(/C=C2\C(=O)Nc3ccc(F)cc32)c1C` [Sunitinib], the mrna remaining at 10 µM (APOL1; RNAseq, 10 uM dose (Table 20)) was 62% and the “ANGPTL3-LINEAR FOLD CHANGE” value (ANGPTL3) was 0.3035.
`CN1C(=O)c2sccc2N(C)c2nc(Nc3ccc(S(N)(=O)=O)cc3)ncc21` [XMU-MP-1] was tested, and the “CPOX Fold change (Log2)” value (CPOX) was 0.37 Log2.
With `C[C@]12C=CC(=O)C=C1CC[C@@H]1[C@@H]2C(=O)C[C@@]2(C)[C@H]1CC[C@]2(O)C(=O)CO` [prednisone] the “CPOX Fold change (Log2)” value (CPOX) was 0.44 Log2, the “SLC37A4 Fold Change (Log2)” value (SLC37A4) was 1.18 Log2 and the “LECT2 Fold Change (Log2)” value (LECT2) was −0.65 Log2.
In the case of IGF-1: IGF-1R activator, the “SLC37A4 Fold Change (Log2)” value (SLC37A4) is reported as 0.60 Log2.
With TNF-a the “SLC37A4 Fold Change (Log2)” value (SLC37A4) was 0.64 Log2.
